Data as given in US12723063B2, “GIPR-agonist compounds” (Eli Lilly and Company, priority 2019, dated 2026).
*1 amine or outer side, *2 acyl side, *3 side chain or, on linkers, in order; H or OH if unused. Where a SMILES comes first, the peptide text is derived from it. Side-chain parts run from the residue outwards. [ ]: non-standard residue; d: D form. The star is where a group is joined. C20 diacid = O=C(O)CCCCCCCCCCCCCCCCCCC(=O)*; γGlu = O=C(O)[C@H](CCC(=O)[*:2])N[*:1]; 4Pal = N[C@@H](Cc1ccncc1)C(=O)O; αMeL = CC(C)C[C@](C)(N)C(=O)O; Orn = NCCC[C@H](N)C(=O)O; AEEA = NCCOCCOCC(=O)O; Aib = CC(C)(N)C(=O)O

How the values were obtained:
human GIPR = biological target: T1, human GIPR (Homo sapiens, UniProt P48546); assay: [125I]-GIP binding, SPA with WGA beads, 0.1% bacitracin; details: geometric mean, read-out: hGIPR Ki
T1 construct: expressed in transfected cells; crude membranes
T1 sequence (P48546 22-466): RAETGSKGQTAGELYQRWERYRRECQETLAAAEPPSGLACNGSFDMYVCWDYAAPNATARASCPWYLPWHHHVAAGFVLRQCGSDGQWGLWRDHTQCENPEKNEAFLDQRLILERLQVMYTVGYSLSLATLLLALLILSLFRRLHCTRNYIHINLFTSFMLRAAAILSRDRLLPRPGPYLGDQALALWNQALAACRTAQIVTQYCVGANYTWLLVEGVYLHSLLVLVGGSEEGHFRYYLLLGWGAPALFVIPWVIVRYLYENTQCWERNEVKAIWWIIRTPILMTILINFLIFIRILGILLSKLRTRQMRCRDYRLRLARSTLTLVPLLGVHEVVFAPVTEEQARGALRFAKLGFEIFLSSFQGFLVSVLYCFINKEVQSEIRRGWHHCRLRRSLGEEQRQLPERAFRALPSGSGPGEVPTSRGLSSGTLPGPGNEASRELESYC
Outline: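 Ki values are geometric means (SEM, n independent days), derived from four-parameter nonlinear regression of IC50. Membranes came from hGIPR-expressing CHO cells.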

[1] = biological target: T2, human GLP-1 receptor (GLP-1R) (Homo sapiens, UniProt P43220); assay: cAMP functional assay (HTRF) in HEK293 cells in presence of 0.1% casein; format: cell-based; details: HEK293 cells expressing human GLP-1R, geometric mean, read-out: hGLP1R cAMP Rel EC50 nM (SEM, n)
T2 construct: expressed in transfected cells; host or cells: HEK293
T2 sequence (P43220 24-463): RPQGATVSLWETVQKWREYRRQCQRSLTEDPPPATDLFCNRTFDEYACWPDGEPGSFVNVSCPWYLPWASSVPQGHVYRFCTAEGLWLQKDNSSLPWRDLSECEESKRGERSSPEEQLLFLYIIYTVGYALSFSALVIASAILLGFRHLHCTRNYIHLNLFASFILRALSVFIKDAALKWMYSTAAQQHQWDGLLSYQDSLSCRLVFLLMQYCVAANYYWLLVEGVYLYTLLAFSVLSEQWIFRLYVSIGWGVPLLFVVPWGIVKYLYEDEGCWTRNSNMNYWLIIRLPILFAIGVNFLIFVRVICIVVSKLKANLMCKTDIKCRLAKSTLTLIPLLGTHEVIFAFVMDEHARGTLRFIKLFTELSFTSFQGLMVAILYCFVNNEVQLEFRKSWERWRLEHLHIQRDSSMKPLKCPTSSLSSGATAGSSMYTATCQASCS

Structure (SMILES) | Ki (human GIPR) | EC50 [1]
CC[C@H](C)[C@H](NC(=O)[C@H](CCCN)NC(=O)[C@H](CC(=O)O)NC(=O)[C@H](CC(C)C)NC(=O)[C@](C)(CC(C)C)NC(=O)[C@@H](NC(=O)[C@H](CO)NC(=O)[C@H](Cc1ccc(O)cc1)NC(=O)[C@H](CC(=O)O)NC(=O)[C@H](CO)NC(=O)[C@@H](NC(=O)[C@H](Cc1ccccc1)NC(=O)[C@@H](NC(=O)CNC(=O)[C@H](CCC(=O)O)NC(=O)C(C)(C)NC(=O)[C@@H](N)Cc1ccc(O)cc1)[C@@H](C)O)[C@@H](C)CC)[C@@H](C)CC)C(=O)N[C@@H](Cc1c[nH]cn1)C(=O)N[C@@H](CCC(N)=O)C(=O)NC(C)(C)C(=O)N[C@@H](CCC(=O)O)C(=O)N[C@@H](Cc1ccccc1)C(=O)N[C@H](C(=O)N[C@@H](CCC(=O)O)C(=O)N[C@@H](Cc1ccc(O)cc1)C(=O)N[C@@H](CCCCNC(=O)COCCOCCNC(=O)COCCOCCNC(=O)CC[C@H](NC(=O)CCCCCCCCCCCCCCCCCCC(=O)O)C(=O)O)C(=O)N[C@@H](CC(C)C)C(=O)N[C@@H](CCC(=O)O)C(=O)N[C@@H](C)C(=O)NCC(=O)N1CCC[C@H]1C(=O)N[C@@H](CO)C(=O)N[C@@H](CO)C(=O)NCC(=O)N[C@@H](C)C(=O)N1CCC[C@H]1C(=O)N1CCC[C@H]1C(=O)N1CCC[C@H]1C(=O)N[C@@H](CO)C(N)=O)C(C)C [Example 104] (H-Y[Aib]EGTFISDYSI[αMeL]LD[Orn]IHQ[Aib]EFVEYK([AEEA-AEEA-γGlu-C20 diacid])LEAGPSSGAPPPS-NH2) | 0.134 nM | > 5000 nM
CC[C@H](C)[C@H](NC(=O)[C@H](CCCN)NC(=O)[C@H](CC(=O)O)NC(=O)[C@H](CC(C)C)NC(=O)[C@](C)(CC(C)C)NC(=O)[C@@H](NC(=O)[C@H](CO)NC(=O)[C@H](Cc1ccc(O)cc1)NC(=O)[C@H](CC(=O)O)NC(=O)[C@H](CO)NC(=O)[C@@H](NC(=O)[C@H](Cc1ccccc1)NC(=O)[C@@H](NC(=O)CNC(=O)[C@H](CCC(=O)O)NC(=O)C(C)(C)NC(=O)[C@@H](N)Cc1ccc(O)cc1)[C@@H](C)O)[C@@H](C)CC)[C@@H](C)CC)C(=O)N[C@@H](Cc1c[nH]cn1)C(=O)N[C@@H](CCC(N)=O)C(=O)NC(C)(C)C(=O)N[C@@H](CCC(=O)O)C(=O)N[C@@H](Cc1ccccc1)C(=O)N[C@H](C(=O)N[C@@H](CCC(=O)O)C(=O)N[C@@H](Cc1ccc(O)cc1)C(=O)N[C@@H](CCCCNC(=O)COCCOCCNC(=O)COCCOCCNC(=O)CC[C@H](NC(=O)CCCCCCCCCCCCCCCCCCC(=O)O)C(=O)O)C(=O)N[C@@H](CC(C)C)C(=O)N[C@@H](CCC(=O)O)C(=O)N[C@H](C(=O)NCC(=O)N1CCC[C@H]1C(=O)N[C@@H](CO)C(=O)N[C@@H](CO)C(=O)NCC(=O)N[C@@H](C)C(=O)N1CCC[C@H]1C(=O)N1CCC[C@H]1C(=O)N1CCC[C@H]1C(=O)N[C@@H](CO)C(N)=O)[C@@H](C)O)C(C)C [Example 105] (H-Y[Aib]EGTFISDYSI[αMeL]LD[Orn]IHQ[Aib]EFVEYK([AEEA-AEEA-γGlu-C20 diacid])LETGPSSGAPPPS-NH2) | 0.174 nM | > 5000 nM
CC[C@H](C)[C@H](NC(=O)[C@H](CCCN)NC(=O)[C@H](CC(=O)O)NC(=O)[C@H](CC(C)C)NC(=O)[C@](C)(CC(C)C)NC(=O)[C@@H](NC(=O)[C@H](CO)NC(=O)[C@H](Cc1ccc(O)cc1)NC(=O)[C@H](CC(=O)O)NC(=O)[C@H](CO)NC(=O)[C@@H](NC(=O)[C@H](Cc1ccccc1)NC(=O)[C@@H](NC(=O)CNC(=O)[C@H](CCC(=O)O)NC(=O)C(C)(C)NC(=O)[C@@H](N)Cc1ccc(O)cc1)[C@@H](C)O)[C@@H](C)CC)[C@@H](C)CC)C(=O)N[C@@H](Cc1c[nH]cn1)C(=O)N[C@@H](CCC(N)=O)C(=O)NC(C)(C)C(=O)N[C@@H](CCC(=O)O)C(=O)N[C@@H](Cc1ccccc1)C(=O)N[C@H](C(=O)N[C@@H](CCC(=O)O)C(=O)N[C@@H](Cc1ccc(O)cc1)C(=O)N[C@@H](CCCCNC(=O)COCCOCCNC(=O)COCCOCCNC(=O)CC[C@H](NC(=O)CCCCCCCCCCCCCCCCCCC(=O)O)C(=O)O)C(=O)N[C@@H](CC(C)C)C(=O)N[C@@H](CCC(=O)O)C(=O)N[C@@H](CCC(N)=O)C(=O)NCC(=O)N1CCC[C@H]1C(=O)N[C@@H](CO)C(=O)N[C@@H](CO)C(=O)NCC(=O)N[C@@H](C)C(=O)N1CCC[C@H]1C(=O)N1CCC[C@H]1C(=O)N1CCC[C@H]1C(=O)N[C@@H](CO)C(N)=O)C(C)C [Example 106] (H-Y[Aib]EGTFISDYSI[αMeL]LD[Orn]IHQ[Aib]EFVEYK([AEEA-AEEA-γGlu-C20 diacid])LEQGPSSGAPPPS-NH2) | 0.0918 nM | > 5000 nM
CC[C@H](C)[C@H](NC(=O)[C@H](CCCN)NC(=O)[C@H](CC(=O)O)NC(=O)[C@H](CC(C)C)NC(=O)[C@](C)(CC(C)C)NC(=O)[C@@H](NC(=O)[C@H](CO)NC(=O)[C@H](Cc1ccc(O)cc1)NC(=O)[C@H](CC(=O)O)NC(=O)[C@H](CO)NC(=O)[C@@H](NC(=O)[C@H](Cc1ccccc1)NC(=O)[C@@H](NC(=O)CNC(=O)[C@H](CCC(=O)O)NC(=O)C(C)(C)NC(=O)[C@@H](N)Cc1ccc(O)cc1)[C@@H](C)O)[C@@H](C)CC)[C@@H](C)CC)C(=O)N[C@@H](Cc1c[nH]cn1)C(=O)N[C@@H](CCC(N)=O)C(=O)NC(C)(C)C(=O)N[C@@H](CCC(=O)O)C(=O)N[C@@H](Cc1ccccc1)C(=O)N[C@H](C(=O)N[C@@H](CCC(=O)O)C(=O)N[C@@H](Cc1ccc(O)cc1)C(=O)N[C@@H](CCCCNC(=O)COCCOCCNC(=O)COCCOCCNC(=O)CC[C@H](NC(=O)CCCCCCCCCCCCCCCCCCC(=O)O)C(=O)O)C(=O)N[C@@H](CC(C)C)C(=O)N[C@@H](CCC(=O)O)C(=O)NCC(=O)NCC(=O)N1CCC[C@H]1C(=O)N[C@@H](CO)C(=O)N[C@@H](CO)C(=O)NCC(=O)N[C@@H](C)C(=O)N1CCC[C@H]1C(=O)N1CCC[C@H]1C(=O)N1CCC[C@H]1C(=O)N[C@@H](CO)C(N)=O)C(C)C [Example 107] (H-Y[Aib]EGTFISDYSI[αMeL]LD[Orn]IHQ[Aib]EFVEYK([AEEA-AEEA-γGlu-C20 diacid])LEGGPSSGAPPPS-NH2) | 0.0722 nM | > 5000 nM
CC[C@H](C)[C@H](NC(=O)[C@H](CCCN)NC(=O)[C@H](CC(=O)O)NC(=O)[C@H](CC(C)C)NC(=O)[C@](C)(CC(C)C)NC(=O)[C@@H](NC(=O)[C@H](CO)NC(=O)[C@H](Cc1ccc(O)cc1)NC(=O)[C@H](CC(=O)O)NC(=O)[C@H](CO)NC(=O)[C@@H](NC(=O)[C@H](Cc1ccccc1)NC(=O)[C@@H](NC(=O)CNC(=O)[C@H](CCC(=O)O)NC(=O)C(C)(C)NC(=O)[C@@H](N)Cc1ccc(O)cc1)[C@@H](C)O)[C@@H](C)CC)[C@@H](C)CC)C(=O)N[C@@H](Cc1c[nH]cn1)C(=O)N[C@@H](CCC(N)=O)C(=O)NC(C)(C)C(=O)N[C@@H](CC(=O)O)C(=O)N[C@@H](Cc1ccccc1)C(=O)N[C@H](C(=O)N[C@@H](CCC(=O)O)C(=O)N[C@@H](Cc1ccncc1)C(=O)N[C@@H](CCCCNC(=O)COCCOCCNC(=O)COCCOCCNC(=O)CC[C@H](NC(=O)CCCCCCCCCCCCCCCCCCC(=O)O)C(=O)O)C(=O)N[C@@H](CC(C)C)C(=O)N[C@@H](CCC(=O)O)C(=O)NCC(=O)NCC(=O)N1CCC[C@H]1C(=O)N[C@@H](CO)C(=O)N[C@@H](CO)C(=O)NCC(=O)N[C@@H](C)C(=O)N1CCC[C@H]1C(=O)N1CCC[C@H]1C(=O)N1CCC[C@H]1C(=O)N[C@@H](CO)C(N)=O)C(C)C [Example 108] (H-Y[Aib]EGTFISDYSI[αMeL]LD[Orn]IHQ[Aib]DFVE[4Pal]K([AEEA-AEEA-γGlu-C20 diacid])LEGGPSSGAPPPS-NH2) | 0.134 nM | > 5000 nM
CC[C@H](C)[C@H](NC(=O)[C@H](CCCCN)NC(=O)[C@H](CC(=O)O)NC(=O)[C@H](CC(C)C)NC(=O)[C@](C)(CC(C)C)NC(=O)[C@@H](NC(=O)[C@H](CO)NC(=O)[C@H](Cc1ccc(O)cc1)NC(=O)[C@H](CC(=O)O)NC(=O)[C@H](CO)NC(=O)[C@@H](NC(=O)[C@H](Cc1ccccc1)NC(=O)[C@@H](NC(=O)CNC(=O)[C@H](CCC(=O)O)NC(=O)C(C)(C)NC(=O)[C@@H](N)Cc1ccc(O)cc1)[C@@H](C)O)[C@@H](C)CC)[C@@H](C)CC)C(=O)N[C@@H](Cc1c[nH]cn1)C(=O)N[C@@H](CCC(N)=O)C(=O)NC(C)(C)C(=O)N[C@@H](CC(=O)O)C(=O)N[C@@H](Cc1ccccc1)C(=O)N[C@H](C(=O)N[C@@H](CCC(=O)O)C(=O)N[C@@H](Cc1ccncc1)C(=O)N[C@@H](CCCCNC(=O)COCCOCCNC(=O)COCCOCCNC(=O)CC[C@H](NC(=O)CCCCCCCCCCCCCCCCCCC(=O)O)C(=O)O)C(=O)N[C@@H](CC(C)C)C(=O)N[C@@H](CCC(=O)O)C(=O)NCC(=O)NCC(=O)N1CCC[C@H]1C(=O)N[C@@H](CO)C(=O)N[C@@H](CO)C(=O)NCC(=O)N[C@@H](C)C(=O)N1CCC[C@H]1C(=O)N1CCC[C@H]1C(=O)N1CCC[C@H]1C(=O)N[C@@H](CO)C(N)=O)C(C)C [Example 109] (H-Y[Aib]EGTFISDYSI[αMeL]LDKIHQ[Aib]DFVE[4Pal]K([AEEA-AEEA-γGlu-C20 diacid])LEGGPSSGAPPPS-NH2) | 0.117 nM | > 5000 nM
